Where a name gives a salt, the structure may show the parent alone.
Columns and labels:
purple nutsedge [1] = assay: Test Example 1: pot test, foliar application of flazasulfuron and granule application of chlorthiamid, visual growth inhibition; assay type: in vivo, Cyperus rofundus L.; conditions: Cyperus, read-out: Growth inhibition rate (%) of purple nutsedge, Measured value
From the text: When the herbicidal activity in a case where two active ingredients are combined, is larger than the simple sum (the expected activity) of the respective herbicidal activities of the two active ingredients, it is called a synergistic effect. The activity expected by the combination of two active ingredients can be calculated as follows (Colby S. R., “Weed”, vol. 15, p. 20-22, 1967).
(§1) Upland field soil was put into a 1/1,000,000 ha pot, and tubers of purple nutsedge (Cyperus rofundus L.) were planted. 33 days later, when purple nutsedge reached a 6 to 7 leaf stage, a predetermined amount of water dispersible granules containing flazasulfuron as an active ingredient (tradename: SHIBAGEN DF, manufactured by Ishihara Sangyo Kaisha, Ltd.) was diluted with water (corresponding to 200 L/ha) containing 0.02 vol % of an agricultural adjuvant (tradename: Kusa-rino, manufactured by Nihon Nohyaku Co., Ltd.) and applied by foliar application by means of a small sprayer, and a predetermined amount of granules containing chlorthiamid as an active ingredient (tradename: GF Ben-pole granules, manufactured by Suimitomo Chemical Garden Products Inc.) was applied by granule application.
(§2) Measured value of growth inhibition rate(%)(evaluated value by visual observation)=0(equivalent to non-treated area) to 100(complete kill)
(§3) That is, the measured value of growth inhibition rate (%) was rated to be 0% in a case where the level of the growth inhibition of weeds was the same in the non-treated area and to be 100% in a case where the growth was completed inhibited and the weeds were killed.

green kyllinga [2] = assay: Test Example 2: pot test on green kyllinga, visual growth inhibition; assay type: in vivo, Kyllinga brevifolia var. leiolepis; conditions: Cyperus brevifolius, read-out: Growth inhibition rate (%) of green kyllinga, Measured value
Method: as §1, §2, §3
Upland field soil was put into a 1/1,000,000 ha pot, and rhizomes of green kyllinga (Kyllinga brevifolia var. leiolepis) were planted. 46 days later, when the height of green kyllinga reached 4 to 7 cm, a predetermined amount of SHIBAGEN DF, (tradename) and a predetermined amount of GF Ben-pole (tradename) were applied in the same manner as in Test Example 1.

green kyllinga [3] = assay: Test Example 5: pot test, sodium salt of trifloxysulfuron and chlorthiamid, visual growth inhibition; assay type: in vivo, Kyllinga brevifolia var. leiolepis; conditions: Cyperus brevifolius, 42nd day after application, height 6 to 8 cm, read-out: Growth inhibition rate (%) of green kyllinga, Measured value
From the text: as §2, §3
(§4) Upland field soil was put into a 1/1,000,000 ha pot, and tubers of purple nutsedge were planted. When purple nutsedge reached a 13 leaf stage, a predetermined amount of SHIBAGEN DF (tradename) and a predetermined amount of a wettable powder containing dichlobenil as an active ingredient (tradename: Kasoron wettable powder, manufactured by AGRO-KANESHO Co., Ltd.) were diluted with water (corresponding to 2,000 L/ha) containing 0.02 vol % of Kusa-rino (tradename) and applied by foliar application by means of a small sprayer.
Upland field soil was put into a 1/1,000,000 ha pot, rhizomes of green kyllinga (Kyllinga brevifolia var. leiolepis) were planted.

green kyllinga [4] = assay: Test Example 6: pot test, sodium salt of trifloxysulfuron and chlorthiamid or dichlobenil, visual growth inhibition; assay type: in vivo, Kyllinga brevifolia var. leiolepis; conditions: Cyperus brevifolius, 42nd day after application, height 10 cm, read-out: Growth inhibition rate (%) of green kyllinga, Measured value; for inhibition at 5000 g/ha: dose 5,000 g/ha
From the text: as §2, §3, §4
Upland field soil was put into a 1/1,000,000 ha pot, rhizomes of green kyllinga (Kyllinga brevifolia var. leiolepis) were planted. When the height of green kyllinga reached 10 cm, a predetermined amount of Monument water dispersible granules (tradename) and a predetermined amount of chlorthiamid (reagent, manufactured by Wako Pure Chemical Industries, Ltd.) or Kasoron wet powder (tradename) were applied in the same manner as in Test Example 4.

purple nutsedge [5] = assay: Test Example 3: pot test, foliar application of herbicidal composition, visual growth inhibition; assay type: in vivo, Cyperus rofundus L; conditions: Cyperus, read-out: Growth inhibition rate (%) of purple nutsedge, Measured value
From the text: as §2, §3
Upland field soil was put into a 1/1,000,000 ha pot, and tubers of purple nutsedge (Cyperus rofundus L) were planted. 54 days later, when purple nutsedge reached a height of 25 to 30 cm, a predetermined amount of a herbicidal composition was diluted with water (corresponding to 200 L/ha) containing 0.02 vol % of an agricultural adjuvant (tradename: Kusa-rino, manufactured by Nihon Nohyaku Co., Ltd.) and applied by foliar application by means of a small sprayer.
On the 42nd day after application, the state of growth of the plant was visually observed, and in the same manner as in Test Example 1, the measured growth inhibition rate (%) and the calculated growth inhibition rate (%) obtained by the Colby's formula are shown in Table 3.

purple nutsedge [6] = assay: Test Example 4: pot test, foliar application of flazasulfuron and dichlobenil wettable powder, visual growth inhibition; assay type: in vivo; conditions: Cyperus
From the text: as §2, §3, §4
On the 42nd day after application, the state of growth of purple nutsedge was visually observed, and in the same manner as in Test Example 1, the measured growth inhibition rate (%) and the calculated growth inhibition rate (%) obtained by the Colby's formula are shown in Table 4.

[7] = read-out: Growth inhibition rate (%) of purple nutsedge, Measured value

SMILES: NC(=S)c1c(Cl)cccc1Cl [Chlorthiamid, 2,6-dichlorothiobenzamide]
- inhibition at 1000 g/ha (purple nutsedge [1]): 35%
- inhibition at 2000 g/ha (purple nutsedge [1]): 33%
- inhibition at 4000 g/ha (purple nutsedge [1]): 50%
- inhibition at 6000 g/ha (purple nutsedge [1]): 69%
- inhibition at 1000 g/ha (green kyllinga [2]): 20%
- inhibition at 5000 g/ha (green kyllinga [2]): 65%
- inhibition at 1000 g/ha (green kyllinga [3]; dose 1,000 g/ha): 18%
- inhibition at 10000 g/ha (green kyllinga [3]; dose 10,000 g/ha): 30%
- inhibition at 5000 g/ha (green kyllinga [4]): 58%
- inhibition at 500 g/ha (purple nutsedge [5]): 0%
- inhibition at 1000 g/ha (purple nutsedge [5]): 0%
- inhibition at 2000 g/ha (purple nutsedge [5]): 18%
- inhibition at 4000 g/ha (purple nutsedge [5]): 33%

SMILES: COc1cc(OC)nc(NC(=O)NS(=O)(=O)c2ncccc2C(F)(F)F)n1 [Flazasulfuron, 1-(4,6-dimethoxypyrimidin-2-yl)-3-(3-trifluoromethyl-2-pyridylsulfonyl)urea]
- inhibition at 25 g/ha (purple nutsedge [1]; dose 25 g/ha, 36th day after application, 6 to 7 leaf stage): 18%
- inhibition at 50 g/ha (purple nutsedge [1]; dose 50 g/ha, 36th day after application, 6 to 7 leaf stage): 73%
- inhibition at 50 g/ha (green kyllinga [2]; dose 50 g/ha, 54th day after application, height 4 to 7 cm): 80%
- inhibition at 25 g/ha (purple nutsedge [6]; dose 25 g/ha, 42nd day after application, 13 leaf stage, read-out: Growth inhibition rate (%) of Purple nutsedge, Measured value): 87%
- inhibition at 25 g/ha (purple nutsedge [5]; dose 25 g/ha, 42nd day after application, height 25 to 30 cm): 87%
- inhibition at 50 g/ha (purple nutsedge [5]; dose 50 g/ha, 42nd day after application, height 25 to 30 cm): 98%

SMILES: N#Cc1c(Cl)cccc1Cl [Dichlobenil, 2,6-dichlorobenzonitrile]
- inhibition at 500 g/ha (purple nutsedge [6]; [7]): 10%
- inhibition at 4000 g/ha (purple nutsedge [6]; [7]): 33%
- inhibition at 5000 g/ha (green kyllinga [4]): 58%
- inhibition at 500 g/ha (purple nutsedge [5]): 10%
- inhibition at 1000 g/ha (purple nutsedge [5]): 23%
- inhibition at 2000 g/ha (purple nutsedge [5]): 10%
- inhibition at 4000 g/ha (purple nutsedge [5]): 33%

SMILES: COc1cc(OC)nc(NC(=O)NS(=O)(=O)c2ncccc2OCC(F)(F)F)n1 [Sodium salt of trifloxysulfuron, 1-(4,6-dimethoxypyrimidin-2-yl)-3-[3-(2,2,2-trifluoroethoxy)-2-pyridylsulfonyl]urea]
- inhibition at 10 g/ha (green kyllinga [3]; dose 10 g/ha): 0%
- inhibition at 200 g/ha (green kyllinga [3]; dose 200 g/ha): 25%
- inhibition at 45 g/ha (green kyllinga [4]; dose 45 g/ha): 0%

Reference: US20130040814A1, “HERBICIDAL COMPOSITION” (ISHIHARA SANGYO KAISHA, LTD., priority 2010, published 2013)
